One series has as its system HIV-1 (IIIB). The experiment in a line: Antiviral (HIV) assay in MT-4 cells. The class given is cell-based. The following applies: Human immunodeficiency virus 1, MT4, 120 h; HIV-1 IIIB in MT-4 cells, 5 days incubation, Cell Titer Glo; average of at least two independent experiments. The essentials: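 MT-4 cells, infected with HIV-1 IIIB (1:250 dilution of concentrated stock) or mock-infected, were exposed to 1:3 serially diluted compounds in RPMI with 10% FBS. After 5 days at 37° C., CellTiter-Glo luminescence was read. EC50 = concentration causing […], from sigmoidal dose-response fits.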
Background: ATP-based viability assays read luminescence as a measure of living cells.

The nature of a further series: physchem. The class given is physicochemical. The following applies: phosphate buffered saline, 26 °C, aqueous buffer, kinetic from dmso stock, pH 7.4 PBS, 1.0% DMSO, 24-hour incubation at ambient temperature. The protocol:
Example 108: Kinetic Solubility Analysis
Buffer Preparation: 0.1 N HCl: Hydrochloric acid, 0.1 N standardized solution (MP Biomedicals part number 199569). 1×PBS, pH 7.4: Phosphate Buffered Saline (PBS) solution 10× (Fisher Bioreagent part number BP399-500) 50 mL was added to approximately 450 mL HPLC grade H2O. The volume of the solution was then adjusted to 500 mL for a total dilution factor of 1:10 and a final PBS concentration of 1×.
The final DMSO concentration was 1.0% (v/v) and maximum theoretical compound concentration is 100 μM (for compound stock concentration of 10 mM). The filter plate was sealed. Following 24-hour incubation at ambient temperature (24.2-27.5° C.), the samples were vacuum filtered and the filtrates were collected in a 96 well polypropylene plate for analysis. The collection plate was sealed for analysis. Filtrates were injected into the Antek 8060 chemiluminescent nitrogen detector for quantification. The results are reported in μM.
The filtrates were quantified with respect to this calibration curve. Each calculated solubility value was corrected for background nitrogen present in the DMSO and in the medium used to prepare the sample. All reported values for compounds containing adjacent nitrogen atoms in a ring structure were increased by approximately 25%.

The structures appear in SMILES notation. Values after ≈ are worked out from the molar mass of the structure shown.

For the molecule `CC(C)CCCOC(=O)C(C)(C)NP(=O)(CO[C@H](C)Cn1cnc2c(N)ncnc21)NC(C)(C)C(=O)OCCCC(C)C` [Example 67, Bis(4-methylpentyl) 2,2′-(((((1-(6-amino-9H-purin-9-yl)propan-2-yl)oxy)methyl)phosphoryl)bis(azanediyl))(R)-bis(2-methylpropanoate)], in the series on HIV-1 (IIIB), the midpoint of the response, the EC50, lay at 8 nM. Besides, the solubility (kinetic) (usually solubility judged after dilution from a stock solution rather than from solid) at 24 h in “physchem” turned out to be 38 µg/mL (≈ 60.7 µM).

These data come from patent US12110305B2, “Prodrugs of phosphonamide nucleotide analogues and their pharmaceutical use” (priority 2020, dated 2024).
